Measurements taken from patent publication US20240148821A1, “PHARMACEUTICAL USE OF CYCLIC PEPTIDE COMPOUND” (CHUGAI SEIYAKU KABUSHIKI KAISHA, priority 2021, published 2024).
Numbered stars: 1 amine (or outer) side, 2 acyl side, 3 side chain; on linkers, the order of the positions; unused ones are H or OH. Bridge positions count the residues as written; N and C are the ends. Square brackets hold non-standard residues; d marks the D form. Peptide text beside a SMILES is read from it. * marks the point of attachment. hPhe(3-Cl-4-CF3) = N[C@@H](CCc1ccc(C(F)(F)F)c(Cl)c1)C(=O)O; NMePhe(4-Me) = CN[C@@H](Cc1ccc(C)cc1)C(=O)O; NMedβ3hAla = C[C@H](CC(=O)[*:2])N(C)[*:1]; NMeNva(5,5-F2) = CN[C@@H](CCC(F)F)C(=O)O; NMeGly(cPent) = CN[C@H](C(=O)O)C1CCCC1; NMeCha = CN[C@@H](CC1CCCCC1)C(=O)O; NMeChg = CN[C@H](C(=O)O)C1CCCCC1; NMeF = CN[C@@H](Cc1ccccc1)C(=O)O; NMeI = CC[C@H](C)[C@H](NC)C(=O)O; NMeD = CN[C@@H](CC(=O)O)C(=O)O; NMeL = CN[C@@H](CC(C)C)C(=O)O; NMeV = CN[C@H](C(=O)O)C(C)C; d(β3hA) = C[C@@H](N)CC(=O)O; NMeS = CN[C@@H](CO)C(=O)O; Morpholide = C1CN(*)CCO1; NMeA = CN[C@@H](C)C(=O)O; Piperidide = C1CCN(*)CC1; dNMeA = CN[C@H](C)C(=O)O; Ac5c = NC1(C(=O)O)CCCC1; Abu = CC[C@H](N)C(=O)O; Sar = CNCC(=O)O; Propyl = CCC*

These compounds were tested on Human pancreatic cancer cell line AsPC-1 (G12D mutation Kras) (assay: AsPC-1 cell growth inhibition (AsPC-1 CGI)). Conditions: read-out: AsPC-1 cell growth inhibition, 50% growth inhibitory concentration (IC50 value); 96 hours, CellTiter-Glo, values classified in ranges.
Type: cell-based
Protocol: Test compounds were serially dilated with dimethyl sulfoxide, and 200 nL was then dispensed to a U-bottom 96-well plate using Labcyte Echo. […] The cell suspension was dispensed to a. plate containing a test compound at 100 μL per well and incubated at 37° C. in a 5% carbon dioxide gas incubator. 96 hours later, 80 μL of CellTiter-Glo (Promega) was added to each well and fluorescence was measured.

CCCOC[C@H]1C(=O)N(C)[C@H](C(=O)N2CCCCC2)CC(=O)N(C)[C@@H](CC(C)C)C(=O)N[C@@H]([C@@H](C)CC)C(=O)N(C)CC(=O)N(C)CC(=O)N(C)[C@@H](CC2CCCCC2)C(=O)N(C)CC(=O)N[C@@H](CCc2ccc(C(F)(F)F)c(Cl)c2)C(=O)N2CCC[C@H]2C(=O)NC2(CCCC2)C(=O)N1C [Compound 1771] ([NMeL]I[Sar][Sar][NMeCha][Sar][hPhe(3-Cl-4-CF3)]P[Ac5c][NMeS](Propyl)[NMeD]-Piperidide; lactam N-11) and CC[C@H](C)[C@@H]1NC(=O)[C@H](CC(C)C)N(C)C(=O)C[C@@H](C(=O)N2CCCCC2)N(C)C(=O)[C@H](CCC(F)F)N(C)C(=O)C2(CCCC2)NC(=O)[C@@H]2CCCN2C(=O)[C@H](CCc2ccc(C(F)(F)F)c(Cl)c2)NC(=O)CN(C)C(=O)[C@H](CC2CCCCC2)N(C)C(=O)CN(C)C(=O)CN(C)C1=O [Compound 1782] ([NMeL]I[Sar][Sar][NMeCha][Sar][hPhe(3-Cl-4-CF3)]P[Ac5c][NMeNva(5,5-F2)][NMeD]-Piperidide; lactam N-11) cannot be ordered by IC50: greater than 0.5 µM for the first, greater than 0.5 µM for the second.

Compared with CC[C@@H]1NC(=O)[C@H](CC(C)C)N(C)C(=O)C[C@@H](C(=O)N2CCCCC2)N(C)C(=O)[C@H](C2CCCCC2)N(C)C(=O)C2(CCCC2)NC(=O)[C@@H]2CCCN2C(=O)[C@H](CCc2ccc(C(F)(F)F)c(Cl)c2)NC(=O)CN(C)C(=O)[C@H](CC2CCCCC2)N(C)C(=O)CN(C)C(=O)CN(C)C1=O [Compound 1775] ([NMeL][Abu][Sar][Sar][NMeCha][Sar][hPhe(3-Cl-4-CF3)]P[Ac5c][NMeChg][NMeD]-Piperidide; lactam N-11), CC[C@H](C)[C@@H]1NC(=O)[C@H](CC(C)C)N(C)C(=O)C[C@@H](C(=O)N(C)C)N(C)C(=O)[C@H](C2CCCC2)N(C)C(=O)C2(CCCC2)NC(=O)[C@@H]2CCCN2C(=O)[C@H](CCc2ccc(C(F)(F)F)c(Cl)c2)NC(=O)CN(C)C(=O)[C@H](Cc2ccc(C)cc2)N(C)C(=O)CN(C)C(=O)CN(C)C1=O [Compound 1779] ([NMeL]I[Sar][Sar][NMePhe(4-Me)][Sar][hPhe(3-Cl-4-CF3)]P[Ac5c][NMeGly(cPent)][NMeD]-NMe2; lactam N-11) is lower in IC50: greater than 0.5 µM for the first, no more than 0.02 µM for the second. The second is the more potent here.

Going from CC[C@H](C)[C@@H]1NC(=O)[C@H](C)N(C)C(=O)C[C@@H](C)NC(=O)[C@H](C(C)C)N(C)C(=O)C2(CCCC2)NC(=O)[C@@H]2CCCN2C(=O)[C@H](CCc2ccc(C(F)(F)F)c(Cl)c2)NC(=O)CN(C)C(=O)[C@H](Cc2ccccc2)N(C)C(=O)[C@@H]2CCCN2C(=O)CN(C)C1=O [Compound 1778] (cyclo([Ac5c][NMeV][d(β3hA)][NMeA]I[Sar]P[NMeF][Sar][hPhe(3-Cl-4-CF3)]P)) to CC[C@H](C)[C@@H]1NC(=O)[C@H](CC(C)C)N(C)C(=O)C[C@@H](C)N(C)C(=O)[C@H]([C@@H](C)CC)N(C)C(=O)C2(CCCC2)NC(=O)[C@@H]2CCCN2C(=O)[C@H](CCc2ccc(C(F)(F)F)c(Cl)c2)NC(=O)CN(C)C(=O)[C@H](Cc2ccc(C)cc2)N(C)C(=O)CN(C)C(=O)CN(C)C1=O [Compound 1792] (cyclo([Ac5c][NMeI][NMedβ3hAla][NMeL]I[Sar][Sar][NMePhe(4-Me)][Sar][hPhe(3-Cl-4-CF3)]P)), the IC50 falls from greater than 0.5 µM to no more than 0.02 µM.

Compound CC[C@H](C)[C@@H]1NC(=O)[C@H](C)N(C)C(=O)C[C@@H](C(=O)N2CCOCC2)N(C)C(=O)[C@H](C(C)C)N(C)C(=O)C2(CCCC2)NC(=O)[C@@H]2CCCN2C(=O)[C@H](CCc2ccc(C(F)(F)F)c(Cl)c2)NC(=O)[C@@H](C)N(C)C(=O)[C@H](CC2CCCCC2)N(C)C(=O)[C@@H]2CCCN2C(=O)CN(C)C1=O [Compound 1788] ([NMeA]I[Sar]P[NMeCha][dNMeA][hPhe(3-Cl-4-CF3)]P[Ac5c][NMeV][NMeD]-Morpholide; lactam N-11) has an IC50 greater than 0.5 µM.
